Results on one molecule are retold here after article PMC11514582, “Leveraging the Aggregated Protein Dye YAT2150 for Malaria Chemotherapy” (Pharmaceutics, 2024).

For data set [1], the system named is P. falciparum asexual blood stages. The note with it: read-out: in vitro IC50 in P. falciparum cultures, including gametocytes; cited from earlier work.
Data set [2] in a line: Cytotoxicity assay in NCI-H460 (MTT). Type of data set: cell-based. To be noted: human, NCI-H460 cells, read-out: NCI-H460 inhibition (CC50).
Procedure: (§1) THP-1 human acute monocytic leukemia cells and NCI-H460 human lung carcinoma cells were grown in RPMI supplemented with 10% FBS. Hep-G2 human hepatocellular carcinoma cells were cultured in Eagle’s minimum essential medium (EMEM) supplemented with 10% FBS. A2780 human ovarian carcinoma cells were grown in RPMI supplemented with 10% FBS and 2 mM L-glutamine. MCF-7 human breast adenocarcinoma cells were cultured in EMEM containing 2 mM L-glutamine and Earle’s balanced salt solution adjusted with 1.5 g/L sodium bicarbonate, 0.1 mM non-essential amino acids, and 1 mM sodium pyruvate and supplemented with 10% FBS. […] Except for Caco-2 and HUVEC, inhibition of cell growth was evaluated using a protocol based on monitoring the transformation into formazan of the tetrazolium salt of MTT (3-(4,5-dimethylthiazol-2-yl)-2,5-diphenyltretrazolium bromide) by metabolically active cells. […] After 96 further h of incubation in the same conditions, 10 µL of a 5 mg/mL MTT solution in PBS was added to each sample, and the incubation was resumed for another 4 h. […] The absorbance measurement range was framed between one sample containing 4000 cells in plain growth medium (to determine the stable cell concentration) and another sample containing an equal cell number in growth medium supplemented with growth factors (to measure the maximum cell growth at 96 h).
Data set [3] deals with liver stages of P. berghei in Huh7. To be noted: human hepatoma cell line Huh7; read-out: IC50 against liver stages of P. berghei; cited from earlier work.
Data set [4] can be described thus: Cytotoxicity assay in HUVEC (resazurin). The data set is classed as cell-based. The note with it: human, read-out: HUVEC inhibition (CC50). A general note: The colour change of resazurin is a common sign of viable cells or microbes.
Data set [5] concerns P. falciparum gametocytes. The note with it: cited from earlier work.
Data set [6] deals with P. falciparum asexual blood stages. Nature of the data set: microbe, parasite or virus in culture. The note with it: Plasmodium falciparum.
Procedure: The asexual blood stages of P. falciparum parasites of the 3D7 strain (Malaria Research and Reference Reagent Resource Center, Manassas, VA, USA) were cultured in group B human RBCs at 3% hematocrit, which was kept throughout the experiments, and incubated in RPMIc. Parasites were maintained at 37 °C under an atmosphere of 5% O2, 5% CO2, and 90% N2. […] The parasites were then cultured under standard conditions for 48 h, allowing for a complete replication cycle. After the incubation period, 3 µL of culture from each well was mixed with 197 µL of PBS containing 0.1 µM Syto 11 (Thermo Fisher Scientific, Inc.) to obtain a final concentration of 1 × 10^6 to 10 × 10^6 cells/mL. Parasitemia levels were measured using an LSRFortessa flow cytometer equipped with a standard configuration of four lasers and 20 parameters. Single-cell populations were identified on a forward-side scatter plot. […] The inhibition data were then transformed using sigmoidal fitting to determine IC50.
For stage arrest assays, P. falciparum cultures were tightly synchronized in schizont stages by repeated treatment with 70% Percoll (GE Healthcare, Chicago, IL, USA) [26, 27]. […] Pictures were taken with a Nikon Eclipse 50i microscope equipped with a DS-Fi1 camera (Nikon Corporation, Tokyo, Japan).
For data set [7] the following is noted: cited from earlier work.
A further data set relates to LYWIYY peptide. Nature of the data set: Transmission electron microscopy of peptide aggregation. Type of data set: biochemical, Plasmodium falciparum. The note with it: 100 nM, 25 µM peptide, 24 h after disaggregation. As to the method: To disaggregate peptides before the assay, 1 mg of lyophilized peptide was dissolved in 1 mL of trifluoroacetic acid (TFA), which, after thoroughly mixing, was evaporated under a N2 stream, and 500 µL of 1,1,1,3,3,3-hexafluoro-2-propanol (HFIP; Honeywell Fluka-Thermo Fisher Scientific, Inc.) were added, mixed well, and evaporated as mentioned before (repeated twice to fully remove TFA). Then, 500 µL of HFIP was added, and the solution was divided into aliquots and placed in a desiccator overnight. Afterward, 500 µL of PBS was added to each aliquot to have a final peptide concentration of 25 µM, and, to ensure minimal aggregation (t0), the samples were sonicated for 10 min in a water bath sonicator (FB15053 ultrasonic bath, Thermo Fisher Scientific, Inc.). To study the effect of YAT2150 on peptide aggregation, the compound was added at a final concentration of 100 nM and incubated for 24 h at 37 °C under stirring at 1400 rpm (t24). For disaggregation analysis, a 25 µM peptide aliquot was first pre-aggregated for 24 h (37 °C, 1400 rpm); after this time, YAT2150 was added at a final concentration of 100 nM, and the samples were incubated for an additional 24 h in the same conditions (t48). Control samples in the absence of YAT2150 were included. A 5-μL drop of each sample was deposited onto a carbon-coated copper grid (Ted Pella, Redding, CA, USA) for 1 h. […]

The conditions of data set [8]: human hepatocytes; cited from earlier work.
Data set [9] can be described thus: Cytotoxicity assay in HEP-G2 (MTT). Type of data set: cell-based. The note with it: human, Hep-G2 cells, read-out: HEP-G2 inhibition (CC50).
Procedure: as §1
Data set [10] is described as follows: Cytotoxicity assay in THP-1 (MTT). The data set is classed as cell-based. The note with it: human, THP-1 cells, read-out: THP-1 inhibition (CC50).
Procedure: as §1
Data set [11] is described as follows: Cytotoxicity across seven human cell lines. Type of data set: cell-based. To be noted: range over cell types, read-out: CC50 in seven different human cell lines. As to the method:
THP-1 human acute monocytic leukemia cells and NCI-H460 human lung carcinoma cells were grown in RPMI supplemented with 10% FBS. Hep-G2 human hepatocellular carcinoma cells were cultured in Eagle’s minimum essential medium (EMEM) supplemented with 10% FBS. A2780 human ovarian carcinoma cells were grown in RPMI supplemented with 10% FBS and 2 mM L-glutamine. MCF-7 human breast adenocarcinoma cells were cultured in EMEM containing 2 mM L-glutamine and Earle’s balanced salt solution adjusted with 1.5 g/L sodium bicarbonate, 0.1 mM non-essential amino acids, and 1 mM sodium pyruvate and supplemented with 10% FBS. […] Except for Caco-2 and HUVEC, inhibition of cell growth was evaluated using a protocol based on monitoring the transformation into formazan of the tetrazolium salt of MTT (3-(4,5-dimethylthiazol-2-yl)-2,5-diphenyltretrazolium bromide) by metabolically active cells. […] The incubation was continued for an additional 12 to 14 h, and absorbance was measured at 595 nm (Tecan M1000 Infinite® Pro, Tecan Trading AG, Männedorf, Switzerland). The absorbance measurement range was framed between one sample containing 4000 cells in plain growth medium (to determine the stable cell concentration) and another sample containing an equal cell number in growth medium supplemented with growth factors (to measure the maximum cell growth at 96 h). […]

Like-named read-outs stand apart in the source and are kept apart here. A value given as a limit tells only on which side of the number the result lay.

As for `CCN(CC)c1ccc(/C=C/c2cc[n+](CCCCCCCCCC[n+]3ccc(/C=C/c4ccc(N(CC)CC)cc4)c(C)c3)cc2C)cc1` [YAT2150], the half-maximal inhibitory concentration (IC50) was less than 100 nM in [1]; 780 nM in data set [3]; roughly 100 nM in data set [5] (read-out: in vitro IC50 for P. falciparum gametocyte cultures); 95 ± 2 nM in [5] (stage I–III (early) gametocytes, read-out: IC50 in P. falciparum stage I–III gametocytes); 103 nM in data set [5] (stage V gametocytes, read-out: IC50 in P. falciparum stage V gametocytes (converted)); 90.5 ± 7 nM in data set [6] (3D7, 48 h, read-out: IC50 in P. falciparum asexual blood stages). Besides, the IC50 in [6] (2 h, read-out: IC50 ± SEM) stood at 224 ± 27 nM. In addition, the CC50 at 96 h in data set [2] was found to be 6760 ± 270 nM; in data set [9], 2540 ± 80 nM; in data set [10], 660 ± 10 nM. The CC50 at 48 h in [4] is 14800 ± 3800 nM. For the same molecule, the IC80 in [6] (3D7, read-out: IC80 (stage arrest assay)) was found to be 200 nM. Further, the “Stability in human plasma (% remaining after 1 h)” value in [7] (1 h) is recorded as 100.0 ^7%. Further, in [7] (2 h), the “Stability in human plasma (% remaining after 2 h)” value is 99.7 ^7%. The “Stability in human plasma (% remaining after 6 h)” value in data set [7] (6 h) is given as 91.3 ^7%. For the same molecule, the “effect on LYWIYY aggregation (TEM)” value in the data set on LYWIYY peptide is given as “significantly abolished after 24 h the formation of LYWIYY amyloid fibrils”. Further, the “Hepatocyte stability (% remaining after 2 h)” value in [8] is listed as 70.4 ^7%. Moreover, in data set [8], the “Hepatocyte stability T1/2” value is recorded as 277.3 ^7 min. The CC50 in data set [11] was in the range of 590 to 18200 nM.

Usually IC50 stands for the point on the concentration scale where inhibition reaches its midpoint. One may read the CC50 as the concentration that lowers cell viability or growth by half. For orientation: IC80 means the concentration needed for an effect of 80%.
